Converted amounts (≈) assume the structure as drawn.
Key:
[1] = Determination of solubility in hydrochloric acid solution of pH 4.0 (saturated solution, HPLC); type: physicochemical; details: ultrasonic 1 hour; for solubility at 1 h: aqueous buffer, thermodynamic from solid, read-out: Solubilities in hydrochloric acid of pH 4
Protocol: 1.6 mg of compound 4 was weighed and dissolved in a mixed solution of 1 ml of methanol and 0.5 ml of DMSO to obtain a control solution. 7.66 mg of compound 4 was dissolved in hydrochloric acid solution of pH 4.0 and shaken in an ultrasonic device for 1 hour to prepare a saturated solution. The solubility of compound 4 in hydrochloric acid solution of pH 4.0 was determined by HPLC.
The solubilities of compound 5 to compound 17 in hydrochloric acid solution were determined with the process for determining the solubility in Example 52.

[2] = Solubilization of compound 1 with surfactants, solution placed for observation; type: physicochemical; details: 12 hours
Protocol: (§1) 2.5 mg of compound 1 was weighed and dissolved with 0.5 ml of 0.1N hydrochloric acid solution. 5% (V/V) of polysorbate 80 was added in the resultant solution. The pH of the solution was adjusted with 0.1N of sodium hydroxide to such an extent that precipitates were just to generate.
2.5 mg of compound 1 was weighed and dissolved with 0.5 ml of 0.1N hydrochloric acid solution. An amount of 0.1 N sodium hydroxide solution which is equal to that in Example 25 was added. Precipitates produced.
as §1, with “2” for “2.5”, “polyethylene glycol-12-hydroxy stearate” for “polysorbate 80”
2 mg of compound 1 was weighed and dissolved with 0.5 ml of 0.1N hydrochloric acid solution. The pH was adjusted with an amount of 0.1 N sodium hydroxide solution which is equal to that in Example 27. Precipitates produced.
2 mg of compound 1 was weighed and dissolved with 0.5 ml of 0.1N hydrochloric acid solution. 5% (V/V) of polyoxyethylene castor oil was added in the resultant solution. The pH of the solution was adjusted with 0.1N of sodium hydroxide to such an extent that precipitates were just to generate.
2 mg of compound 1 was weighed and dissolved with 0.5 ml of 0.1N hydrochloric acid solution. The pH was adjusted with an amount of 0.1 N sodium hydroxide solution which is equal to that in Example 29. Precipitates produced.

[3] = system: normal human endothelial cells; details: in vitro; cited from earlier work
human tumour cells = details: nude mice transplanted human tumour cells; cited from earlier work

Row | Compound | Solubilities in hydrochloric acid of pH 4 [1] | solubility at 1 h [1] | further results
1 | N#CNC(=Nc1ccncc1)NCCCCCCOc1ccc(Cl)cc1 [compound 1, N-cyano-N′-(6-(p-chlorophenoxy)hexyl)-N″-(4-pyridyl)guanidine] |  |  | appearance of solution on standing ([2]; Example 25: 0.1N HCl, 5% (V/V) polysorbate 80, pH adjusted with 0.1N NaOH): solution kept clear for 12 hours; appearance of solution on standing ([2]; Example 26: control without polysorbate 80, same amount of NaOH): precipitates increased during 12 hours; appearance of solution on standing ([2]; Example 27: 0.1N HCl, 5% (V/V) polyethylene glycol-12-hydroxy stearate, pH adjusted with 0.1N NaOH): solution kept clear for 12 hours; appearance of solution on standing ([2]; Example 28: control without polyethylene glycol-12-hydroxy stearate, same amount of NaOH): precipitates increased during 12 hours; appearance of solution on standing ([2]; Example 29: 0.1N HCl, 5% (V/V) polyoxyethylene castor oil, pH adjusted with 0.1N NaOH): solution kept clear for 12 hours; appearance of solution on standing ([2]; Example 30: control without polyoxyethylene castor oil, same amount of NaOH): precipitates increased during 12 hours; antiproliferative activity to normal human endothelial cells [3]: significantly lower antiproliferative activity; antitumour activity (human tumour cells): potent antitumour activity
2 | N#CN=C(NCCCCCCCCCCCCNC(=NC#N)Nc1ccncc1)Nc1ccncc1 [compound 4, 1,12-bis(N′-cyano-N″-4-pyridylguanidine)dodecane] | 0.00052 mg/ml |  | 
3 | N#CNC(=Nc1ccncc1)NCCCCCOc1c(Cl)cc(Cl)cc1Cl [compound 16] | 0.01753 mg/ml |  | 
4 | N#CNC(=Nc1ccncc1)NCCCCCCOc1ccccc1OC(F)(F)F [compound 10] | 0.01965 mg/ml |  | 
5 | CC(C)(C)OC(=O)NCCCCCCCCCCCCNC(=Nc1ccncc1)NC#N [compound 5, N-(12-(tert-butoxycarbonylamino)dodecyl)-N′-cyano-N″-(4-pyridyl)guanidine] |  | 0.92 µg/mL (≈ 2.07 µM) | 
6 | N#CNC(=Nc1ccncc1)NCCCCCOc1ccc(Cl)cc1 [compound 13, N-cyano-N′-(5-(p-chlorophenoxy)pentyl)-N″-(4-pyridyl)guanidine] |  | 29.5 µg/mL (≈ 82.5 µM) | 
7 | COc1ccccc1OCCCCCCCCNC(=Nc1ccncc1)NC#N [compound 14, N-cyano-N′-(8-((o-methoxyphenyl)oxo)octyl)-N″-(4-pyridyl)guanidine] | 0.1481 mg/ml |  | 
8 | N#CNC(=Nc1ccncc1)NCCCCCCOC(=O)c1ccc(Cl)cc1 [compound 6, N-(6-((4-chlorobenzoic acid)ester)hexyl)-N′-cyano-N″-(4-pyridyl)guanidine] | 0.00225 mg/ml |  | 
9 | N#CNC(=Nc1ccncc1)NCCCCCCOc1c(Cl)cc(Cl)cc1Cl [compound 17, N-cyano-N′-(6-((2,4,6-trichlorophenyl)oxo)hexyl)-N″-(4-pyridyl)guanidine] | 0.00669 mg/ml |  | 

Further lines, with some results ahead:

Row | Solubilities in hydrochloric acid of pH 4 [1] | solubility at 1 h [1] | Compound | further results
10 | 0.09993 mg/ml |  | N#CNC(=Nc1ccncc1)NCCCCCCOc1ccc(F)cc1Cl [compound 7] | 
11 |  | 2.85 µg/mL (≈ 7.96 µM) | N#CNC(=Nc1ccncc1)NCCCCCOc1ccccc1Cl [compound 11, N-cyano-N′-(5-(o-chlorophenoxy)pentyl)-N″-(4-pyridyl)guanidine] | 
12 |  | 205 µg/mL (≈ 494 µM) | N#CNC(=Nc1ccncc1)NCCCCCCOc1ccccc1Br [compound 8, N-cyano-N′-(6-(o-bromophenoxy)hexyl)-N″-(4-pyridyl)guanidine] | 
13 | 0.05331 mg/ml |  | N#CNC(=Nc1ccncc1)NCCCCCCOc1c(Cl)cccc1Cl [compound 9, N-cyano-N′-(6-((2,6-dichlorophenyl)oxo)hexyl)-N″-(4-pyridyl)guanidine] | 
14 |  | 3.72 µg/mL (≈ 9.64 µM) | N#CNC(=Nc1ccncc1)NCCCCCCCOc1ccccc1Cl [compound 12, N-cyano-N′-(7-(o-chlorophenoxy)heptyl)-N″-(4-pyridyl)guanidine] | 
15 | 0.000829 mg/ml |  | N#CNC(=Nc1ccncc1)NCCCCCOc1ccc(Cl)cc1Cl [compound 15, N-cyano-N′-(5-((2,4-dichlorophenyl)oxo)pentyl)-N″-(4-pyridyl)guanidine] | 

From patent publication US20120029036A1, “PHARMACEUTICAL COMPOSITIONS COMPRISING PYRIDYL CYANOGUANIDINE, PROCESS FOR PREPARING THE SAME AND USE THEREOF” (Tianjin Michele Sci-Tech Development Co., Ltd., priority 2009, published 2012)
